“Also recorded” adds a separate entry of the source. Structures can show the parent of a compound that is named as a salt.

For data set [1] the following is noted: clinical effects of the known drug; cited from earlier work.
Data set [2] deals with tissue stem cells, transient cells. The settings on record: cell kinetics type the agent acts on; positive control agents; cited from earlier work.
The test system of data set [3] is tissue stem cells. To be noted: in vitro; known in the art; cited from earlier work.
Data set [4] has as its system human liver stem cell-enriched cultures. Nature of the data set: Serial culture of human liver stem cell strains with xanthosine (cumulative population doublings). Format: cell-based. The settings on record: FIG. 14A. From the text: Using a pre-existing dataset developed with control human mini-tissue cultures and cultures treated with the purine nucleoside xanthosine as the test agent, we have validated the ability to use basic cell culture data, described in the methods herein, to detect effects on liver tissue stem cells. […] We used xanthosine as the agent to expand human liver stem cell strains and to produce human liver mini-tissues. […] Thus, culture systems of cells comprising heterogeneous cell population of stem, transient, and differentiated cells can be used to evaluate the activity of a test agent against tissue stem cells by using the methods described herein.
As an initial test of this ability, we used existing data sets from serial culture of our human liver stem cell strains.^14,15 Because these analyses were not ideally developed for the PSCK computer simulation format, they represented a more challenging validation.
The validation agent used was xanthosine, a purine nucleoside that we have shown independently to induce tissue stem cells to switch from asymmetric self-renewal divisions to symmetric divisions that lead to self-replication.

For the molecule `O=P1(N(CCCl)CCCl)NCCCO1` (stereo not drawn) [cyclophosphamide], the “Clinical Effects” value in data set [1] is “Cytoxan ®; extremely myelosuppressive”. Besides, in data set [2], the “Cell-type Specificity” value was “SC and TC”.
As to `Cn1cncc1[C@@](N)(c1ccc(Cl)cc1)c1ccc2c(c1)c(-c1cccc(Cl)c1)cc(=O)n2C` [tipifarnib], the “Clinical Effects” value in data set [1] was “Highly toxic with myelosuppression”.
`Cc1ccc(C(=O)Nc2ccc(CN3CCN(C)CC3)c(C(F)(F)F)c2)cc1C#Cc1cnc2cccnn12` [ponatinib]: in data set [1], the “Clinical Effects” value is “Inclusig ®; myelosuppressive”.
In the case of `Cc1ccc(NC(=O)c2ccc(CN3CCN(C)CC3)cc2)cc1Nc1nccc(-c2cccnc2)n1` [imatinib mesylate], the “Cell-type Specificity” value in data set [2] was “TC^b”.
On to `CS(=O)(=O)c1ccc(C2=C(c3ccccc3)C(=O)OC2)cc1` [refecoxib], for which, in data set [1], the “Clinical Effects” value is listed as “Vioxx ®; idiosyncratic life-threatening toxicity”. Further, in data set [2], the “Cell-type Specificity” value was “SC and TC”.
For the molecule `CC(=O)[C@]1(O)Cc2c(O)c3c(c(O)c2[C@@H](O[C@H]2C[C@H](N)[C@H](O)[C@H](C)O2)C1)C(=O)c1ccccc1C3=O` [idarubicin], in data set [1], the “Clinical Effects” value is listed as “Targets hematopoietic progenitors”.
Consider `O=c1[nH]c(=O)c2ncn([C@@H]3O[C@H](CO)[C@@H](O)[C@H]3O)c2[nH]1` [xanthosine], for which the “Cell-type Specificity” value in data set [2] was “SC^a”. Besides, in data set [3], the “tissue stem cell self-replication” value is “increases self-replication by adult tissue stem cells; also recorded: (In vitro, increases tissue SC self-replication)^1-5”. Further, the “proliferative rate and extent of human liver stem cell serial cultures” value in data set [4] (experimental data) was “increase the proliferative rate and extent”. Also, the “population doublings reached in serial culture” value in data set [4] (xanthosine-supplemented culture, control arrests after less than 30 population doublings) is listed as “greater than 80 population doublings”.

These data come from patent US9733236B2, “Methods for determining the effect of an agent on tissue stem cells” (priority 2014, dated 2017).
